In patent publication US20250340565A1, “CD73 INHIBITOR COMPOUNDS” (AdoRx Therapeutics Limited, priority 2022, published 2025):
Structures can show the parent of a compound that is named as a salt.

Assays:
[1] = target: human (h)CD73 (amino acids Trp27-Lys547) (Homo sapiens, UniProt P21589); assay: CD73 inhibition assay (Malachite Green phosphate detection); type: biochemical; conditions: 250 pM hCD73, 12.5 μM AMP, 20 min pre-incubation, absorbance 620 nm
Procedure: Compound inhibition of human (h)CD73 (amino acids Trp27-Lys547, R&D Systems 5795-EN-500) enzymatic activity was tested via the Malachite Green Phosphate Detection Kit (R&D DY996). Experiments were performed in 20 μL Tris buffer (25 mM Tris pH 7.5, 5 mM MgCl2, 0.002% Tween20), with 250 pM of hCD73. Test compounds of interest were prepared in a threefold serial dilution in DMSO and added to the assay to give the appropriate final concentration, with the assay DMSO concentration being 1%. Compounds were pre-incubated for 20 minutes with hCD73 in a 384 well clear plate (Greiner 781101), followed by the addition of adenosine monophosphate (AMP) to 12.5 μM. The enzymatic reaction was carried out for 20 min at room temperature. 5 μL of Malachite kit reagent A was added to stop the reaction (contains 3M H2SO4) and after 10 min, 5 μL of Malachite kit reagent B was added (Malachite Green). After 30 min, absorbance at 620 nm was read on a BMG Pherastar FSX.
Data were normalised to measurements in the absence of competing compound (0% inhibition) and in the presence of 10 μM control compound (100% inhibition).

[2] = target: CD73 activity in U138-MG cells (Homo sapiens (Human), UniProt P21589); assay: U138-MG inhibition assay (inorganic phosphate from AMP, PiColorLock Gold); type: cell-based; conditions: 100 μM AMP, 30 min pre-incubation, 1 hour at 37° C.
CD73 activity in U138-MG cells, sequence (P21589 27-574): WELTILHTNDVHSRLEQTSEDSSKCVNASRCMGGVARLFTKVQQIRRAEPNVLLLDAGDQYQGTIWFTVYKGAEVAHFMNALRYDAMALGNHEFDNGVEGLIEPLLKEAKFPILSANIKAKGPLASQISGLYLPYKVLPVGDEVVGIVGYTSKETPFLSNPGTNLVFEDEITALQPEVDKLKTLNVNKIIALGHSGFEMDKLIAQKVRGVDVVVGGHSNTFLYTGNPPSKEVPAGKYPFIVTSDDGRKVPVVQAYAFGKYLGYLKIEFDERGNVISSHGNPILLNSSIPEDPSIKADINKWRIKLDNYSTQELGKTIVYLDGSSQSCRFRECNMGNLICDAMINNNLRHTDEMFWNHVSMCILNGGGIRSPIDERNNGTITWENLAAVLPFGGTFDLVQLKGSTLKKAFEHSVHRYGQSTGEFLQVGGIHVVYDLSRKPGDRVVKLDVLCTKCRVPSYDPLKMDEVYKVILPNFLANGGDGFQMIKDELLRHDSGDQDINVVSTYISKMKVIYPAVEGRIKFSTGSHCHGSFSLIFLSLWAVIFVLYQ
Procedure: U138-MG cells from ATCC are cultured in DMEM (Gibco 31966) with 10% FBS. Cells are seeded into 96-well culture plates (5,000 cell/well) in 100 μL of media for 24 hr. Cells are washed twice with 200 μL of assay buffer (20 mM HEPES, pH 7.4; 137 mM NaCl; 5.4 mM KCl; 1.3 mM CaCl2; 4.2 mM NaHCO3; 1 mg/mL glucose) to remove residual inorganic phosphate. CD73 inhibitor is added to each well in 100 μl volume and preincubated for 30 mins at 37° C. An equal volume of AMP substrate (Sigma A1572) is added to each well at a final concentration of 100 μM and incubated at 37° C. for 1 hour. Control wells containing cells but lacking added AMP, define the assay signal equivalent to 100% inhibition of CD73 activity. Supernatant is removed for measurement of inorganic phosphate using the PiColorLock Gold kit (Abcam, ab 270004).
The IC50 values of test compounds are determined as the inflection point of the sigmoidal concentration response curve.

CD73 in whole blood = CD73 in whole blood (Homo sapiens (Human), UniProt P21589); assay: Whole blood AMP Glo assay; type: cell-based; conditions: whole blood of healthy volunteers, 10 μM AMP, 30 min pre-incubation, 15 min at 37° C., levamisole 1.5 mM
CD73 in whole blood, sequence (P21589 27-574): as above
Procedure: Blood is drawn from healthy volunteers by venepuncture and anti-coagulated with Lithium Heparin (10 IU/mi). 150 μl of blood is added to U-bottom polypropylene 96-well assay plates pre-filled with 20 μl of compound dilutions prepared in RPMI also containing the Tissue Non-specific Alkaline Phosphatase inhibitor Levamisole (final assay concentration 1.5 mM). Control wells to define uninhibited CD73 contain DMSO in place of compound. Control wells to define complete stabilization of AMP attributable to CD73 contain LY3475070 (CAS: 2375815-63-5) at 30 μM final assay concentration.
Compounds are pre-incubated with whole blood at 37° C. for 30 minutes. Following this, AMP is added in a 30 μl volume for a final assay concentration of 10 μM, mixed, and the plates are incubated for 15 minutes at 37° C. Final DMSO concentration/well is 0.6% and final volume/well is 200 μL. After incubating with AMP, the plates are placed on ice and then centrifuged at 2000 g for 10 minutes at 4° C. Plasma is removed and then diluted 1:10 with pre-chilled HBSS (Ca2+& Mg2+free) and kept on ice.
The stabilized AMP concentration in diluted plasma is measured using AMP-Glo kit (Promega), in parallel with a standard curve of known AMP concentrations, with a final volume of 40 μl in white flat bottom half-well 96-well plates (Corning). Signal is measured by Luminescence. The IC50 values of test compounds are determined as the inflection point of the sigmoidal concentration response curve.

IC50 [1] [µM]	IC50 [2] [µM]	IC50 (CD73 in whole blood) [µM]	SMILES
0.0743	0.0766	0.254	CN1CCOC(COC2CCN(c3ncnc4sc(-c5c[nH]c(=O)[nH]c5=O)cc34)C2)C1 (stereo not drawn) [Example 4.4, 5-[4-[3-[(4-Methylmorpholin-2-yl)methoxy]pyrrolidine-1-yl]thieno[2,3-d]pyrimidin-6-yl]-1H-pyrimidine-2,4-dione]
0.032	0.179	0.184	O=c1[nH]cc(-c2cc3c(N4CC(OCCN5CCCCC5)C(F)(F)C4)ncnc3s2)c(=O)[nH]1 (stereo not drawn) [Example 5, 5-[4-[3,3-Difluoro-4-[2-(1-piperidyl)ethoxy]pyrrolidine-1-yl]thieno[2,3-d]pyrimidin-6-yl]-1H-pyrimidine-2,4-dione formate salt]
0.0228	0.0072	0.0125	O=c1[nH]cc(-c2cc3c(N4CCC(OCCN5CCCCC5)C4)ncnc3o2)c(=O)[nH]1 (stereo not drawn) [Example 7, 5-[4-[3-[2-(1-Piperidyl)ethoxy]pyrrolidin-1-yl]furo[2,3-d]pyrimidin-6-yl]-1H-pyrimidine-2,4-dione formate salt]
0.0254	0.0228	0.444	CC1(C)CN(c2ncnc3oc(-c4c[nH]c(=O)[nH]c4=O)cc23)CC1(F)F [Example 7.1, 5-[4-(3,3-Difluoro-4,4-dimethyl-pyrrolidin-1-yl)furo[2,3-d]pyrimidin-6-yl]-1H-pyrimidine-2,4-dione]
0.0201	0.0347	0.0507	O=c1[nH]cc(-c2cc3ncnc(N4CCC(OCCN5CCCCC5)C4)c3s2)c(=O)[nH]1 (stereo not drawn) [Example 8, 5-[4-[3-[2-(1-Piperidyl)ethoxy]pyrrolidin-1-yl]thieno[3,2-d]pyrimidin-6-yl]-1H-pyrimidine-2,4-dione]
0.0207	0.0519	0.0296	O=c1[nH]cc(-c2cc3c(N4CCC(OCCN5CCCCC5)C4)ncnn3c2)c(=O)[nH]1 (stereo not drawn) [Example 10, 5-[4-[3-[2-(1-Piperidyl)ethoxy]pyrrolidin-1-yl]pyrrolo[2,1-f][1,2,4]triazin-6-yl]pyrimidine-2,4-diol]
0.0854	0.0611	0.0501	O=c1[nH]cc(-c2cc3c(N4CCC(OCCN5CCC(F)(F)CC5)C4)ncnn3c2)c(=O)[nH]1 (stereo not drawn) [Example 10.1, 5-[4-[3-[2-(4,4-Difluoro-1-piperidyl)ethoxy]pyrrolidin-1-yl]pyrrolo[2,1-f][1,2,4]triazin-6-yl]-1H-pyrimidine-2,4-dione]
0.13	0.312	1.59	CC1(C)CN(c2ncnn3cc(-c4c[nH]c(=O)[nH]c4=O)cc23)CC1(F)F [Example 10.2, 5-[4-(3,3-Difluoro-4,4-dimethyl-pyrrolidin-1-yl)pyrrolo[2,1-f][1,2,4]triazin-6-yl]-1H-pyrimidine-2,4-dione]
0.103	0.246	0.686	N#Cc1cnc2sc(-c3c[nH]c(=O)[nH]c3=O)cc2c1N1CCC(OCCN2CCCCC2)C1 (stereo not drawn) [Example 11, 2-(2,4-Dioxo-1H-pyrimidin-5-yl)-4-[3-[2-(1-piperidyl)ethoxy]pyrrolidin-1-yl]thieno[2,3-b]pyridine-5-carbonitrile]
0.0337	0.0027	0.0006	O=c1[nH]cc(-n2cc3c(N4CCC(OCCN5CCCCC5)C4)ncnc3n2)c(=O)[nH]1 (stereo not drawn) [Example 12, 5-[4-[3-[2-(1-Piperidyl)ethoxy]pyrrolidin-1-yl]pyrazolo[3,4-d]pyrimidin-2-yl]-1H-pyrimidine-2,4-dione hydrochloride]
0.0448	0.0018	0.00047	CC1(C)CN(c2ncnc3nn(-c4c[nH]c(=O)[nH]c4=O)cc23)CC1(F)F [Example 13, 5-[4-(3,3-Difluoro-4,4-dimethyl-pyrrolidin-1-yl)pyrazolo[3,4-d]pyrimidin-2-yl]-1H-pyrimidine-2,4-dione]
0.0371	0.0024	0.00115	O=c1[nH]cc(-n2cc3c(N4CC(F)(F)C5(CC5)C4)ncnc3n2)c(=O)[nH]1 [Example 13.1, 5-[4-(7,7-Difluoro-5-azaspiro[2.4]heptan-5-yl)pyrazolo[3,4-d]pyrimidin-2-yl]-1H-pyrimidine-2,4-dione]
0.0607	0.0021	0.00113	O=c1[nH]cc(-n2cc3c(N4CC(F)(F)C5(CCC5)C4)ncnc3n2)c(=O)[nH]1 [Example 13.2, 5-[4-(8,8-Difluoro-6-azaspiro[3.4]octan-6-yl)pyrazolo[3,4-d]pyrimidin-2-yl]-1H-pyrimidine-2,4-dione]
0.124	0.0045	0.00352	O=c1[nH]cc(-n2cc3c(N4CC(F)(F)C5(CCCC5)C4)ncnc3n2)c(=O)[nH]1 [Example 13.3, 5-[4-(4,4-Difluoro-2-azaspiro[4.4]nonan-2-yl)pyrazolo[3,4-d]pyrimidin-2-yl]-1H-pyrimidine-2,4-dione]
0.095	0.0353	0.0141	O=c1[nH]cc(-n2cc3c(N4C[C@H]5CCC[C@H]5C4)ncnc3n2)c(=O)[nH]1 [Example 13.4, 5-[4-[(3aR,6aS)-3,3a,4,5,6,6a-Hexahydro-1H-cyclopenta[c]pyrrol-2-yl]pyrazolo[3,4-d]pyrimidin-2-yl]-1H-pyrimidine-2,4-dione]
0.0847	0.0105	0.00212	CCC1(C)CCN(c2ncnc3nn(-c4c[nH]c(=O)[nH]c4=O)cc23)C1 (stereo not drawn) [Example 13.5, 5-[4-(3-Ethyl-3-methyl-pyrrolidin-1-yl)pyrazolo[3,4-d]pyrimidin-2-yl]-1H-pyrimidine-2,4-dione]
0.0311	0.0086	0.00119	CC1(C)CCN(c2ncnc3nn(-c4c[nH]c(=O)[nH]c4=O)cc23)C1 [Example 13.6, 5-[4-(3,3-Dimethylpyrrolidin-1-yl)pyrazolo[3,4-d]pyrimidin-2-yl]-1H-pyrimidine-2,4-dione]
0.0739	0.0209	0.00758	CCC1(CC)CCN(c2ncnc3nn(-c4c[nH]c(=O)[nH]c4=O)cc23)C1 [Example 13.7, 5-[4-(3,3-Diethylpyrrolidin-1-yl)pyrazolo[3,4-d]pyrimidin-2-yl]-1H-pyrimidine-2,4-dione]
0.0476	0.0121	0.0015	O=c1[nH]cc(-n2cc3c(N4CC(F)(F)C(F)(F)C4)ncnc3n2)c(=O)[nH]1 [Example 13.8, 5-[4-(3,3,4,4-Tetrafluoropyrrolidin-1-yl)pyrazolo[3,4-d]pyrimidin-2-yl]-1H-pyrimidine-2,4-dione]
0.303	0.0492	0.0055	O=c1[nH]cc(-n2cc3c(N4C[C@H]5COC[C@H]5C4)ncnc3n2)c(=O)[nH]1 [Example 13.9, 5-[4-[(3aR,6aS)-1,3,3a,4,6,6a-Hexahydrofuro[3,4-c]pyrrol-5-yl]pyrazolo[3,4-d]pyrimidin-2-yl]-1H-pyrimidine-2,4-dione]

SMILES	IC50 [1] [µM]	IC50 [2] [µM]	IC50 (CD73 in whole blood) [µM]
O=c1[nH]cc(-c2nc3ncnc(N4CCC(OCCN5CCCCC5)C4)c3s2)c(=O)[nH]1 (stereo not drawn) [Example 6, 5-[7-[3-[2-(1-Piperidyl)ethoxy]pyrrolidin-1-yl]thiazolo[4,5-d]pyrimidin-2-yl]-1H-pyrimidine-2,4-dione]	0.0573	0.0187	0.0275
